Experimental data from patent US9670142B2, “1,3-diaminocyclopentane carboxamide derivatives” (Merck Patent GmbH, priority 2013, dated 2017).

target: human fatty acid synthase FASN (Homo sapiens (Human), UniProt P49327); experiment: Biochemical activity testing of human fatty acid synthase FASN (NADPH fluorescence intensity enzyme assay); conditions: human recombinant full-length fatty acid synthase
Summary of the method: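 In-house Sf9-expressed full-length enzyme (3 μL of 40 nM) in 50 mM potassium phosphate pH 7.0 with glutathione, BSA and Tween-20, plus NADPH (2 μL of 200 μM), preincubated ≥15 min with compound (10 concentrations from 30 μM final, 1% DMSO). Acetyl-CoA/malonyl-CoA added; NADPH fluorescence (ex 340/em 460 nm) read before and after 30 min at room temperature, difference used for IC50.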

Sequence of human fatty acid synthase FASN (P49327 whole entry): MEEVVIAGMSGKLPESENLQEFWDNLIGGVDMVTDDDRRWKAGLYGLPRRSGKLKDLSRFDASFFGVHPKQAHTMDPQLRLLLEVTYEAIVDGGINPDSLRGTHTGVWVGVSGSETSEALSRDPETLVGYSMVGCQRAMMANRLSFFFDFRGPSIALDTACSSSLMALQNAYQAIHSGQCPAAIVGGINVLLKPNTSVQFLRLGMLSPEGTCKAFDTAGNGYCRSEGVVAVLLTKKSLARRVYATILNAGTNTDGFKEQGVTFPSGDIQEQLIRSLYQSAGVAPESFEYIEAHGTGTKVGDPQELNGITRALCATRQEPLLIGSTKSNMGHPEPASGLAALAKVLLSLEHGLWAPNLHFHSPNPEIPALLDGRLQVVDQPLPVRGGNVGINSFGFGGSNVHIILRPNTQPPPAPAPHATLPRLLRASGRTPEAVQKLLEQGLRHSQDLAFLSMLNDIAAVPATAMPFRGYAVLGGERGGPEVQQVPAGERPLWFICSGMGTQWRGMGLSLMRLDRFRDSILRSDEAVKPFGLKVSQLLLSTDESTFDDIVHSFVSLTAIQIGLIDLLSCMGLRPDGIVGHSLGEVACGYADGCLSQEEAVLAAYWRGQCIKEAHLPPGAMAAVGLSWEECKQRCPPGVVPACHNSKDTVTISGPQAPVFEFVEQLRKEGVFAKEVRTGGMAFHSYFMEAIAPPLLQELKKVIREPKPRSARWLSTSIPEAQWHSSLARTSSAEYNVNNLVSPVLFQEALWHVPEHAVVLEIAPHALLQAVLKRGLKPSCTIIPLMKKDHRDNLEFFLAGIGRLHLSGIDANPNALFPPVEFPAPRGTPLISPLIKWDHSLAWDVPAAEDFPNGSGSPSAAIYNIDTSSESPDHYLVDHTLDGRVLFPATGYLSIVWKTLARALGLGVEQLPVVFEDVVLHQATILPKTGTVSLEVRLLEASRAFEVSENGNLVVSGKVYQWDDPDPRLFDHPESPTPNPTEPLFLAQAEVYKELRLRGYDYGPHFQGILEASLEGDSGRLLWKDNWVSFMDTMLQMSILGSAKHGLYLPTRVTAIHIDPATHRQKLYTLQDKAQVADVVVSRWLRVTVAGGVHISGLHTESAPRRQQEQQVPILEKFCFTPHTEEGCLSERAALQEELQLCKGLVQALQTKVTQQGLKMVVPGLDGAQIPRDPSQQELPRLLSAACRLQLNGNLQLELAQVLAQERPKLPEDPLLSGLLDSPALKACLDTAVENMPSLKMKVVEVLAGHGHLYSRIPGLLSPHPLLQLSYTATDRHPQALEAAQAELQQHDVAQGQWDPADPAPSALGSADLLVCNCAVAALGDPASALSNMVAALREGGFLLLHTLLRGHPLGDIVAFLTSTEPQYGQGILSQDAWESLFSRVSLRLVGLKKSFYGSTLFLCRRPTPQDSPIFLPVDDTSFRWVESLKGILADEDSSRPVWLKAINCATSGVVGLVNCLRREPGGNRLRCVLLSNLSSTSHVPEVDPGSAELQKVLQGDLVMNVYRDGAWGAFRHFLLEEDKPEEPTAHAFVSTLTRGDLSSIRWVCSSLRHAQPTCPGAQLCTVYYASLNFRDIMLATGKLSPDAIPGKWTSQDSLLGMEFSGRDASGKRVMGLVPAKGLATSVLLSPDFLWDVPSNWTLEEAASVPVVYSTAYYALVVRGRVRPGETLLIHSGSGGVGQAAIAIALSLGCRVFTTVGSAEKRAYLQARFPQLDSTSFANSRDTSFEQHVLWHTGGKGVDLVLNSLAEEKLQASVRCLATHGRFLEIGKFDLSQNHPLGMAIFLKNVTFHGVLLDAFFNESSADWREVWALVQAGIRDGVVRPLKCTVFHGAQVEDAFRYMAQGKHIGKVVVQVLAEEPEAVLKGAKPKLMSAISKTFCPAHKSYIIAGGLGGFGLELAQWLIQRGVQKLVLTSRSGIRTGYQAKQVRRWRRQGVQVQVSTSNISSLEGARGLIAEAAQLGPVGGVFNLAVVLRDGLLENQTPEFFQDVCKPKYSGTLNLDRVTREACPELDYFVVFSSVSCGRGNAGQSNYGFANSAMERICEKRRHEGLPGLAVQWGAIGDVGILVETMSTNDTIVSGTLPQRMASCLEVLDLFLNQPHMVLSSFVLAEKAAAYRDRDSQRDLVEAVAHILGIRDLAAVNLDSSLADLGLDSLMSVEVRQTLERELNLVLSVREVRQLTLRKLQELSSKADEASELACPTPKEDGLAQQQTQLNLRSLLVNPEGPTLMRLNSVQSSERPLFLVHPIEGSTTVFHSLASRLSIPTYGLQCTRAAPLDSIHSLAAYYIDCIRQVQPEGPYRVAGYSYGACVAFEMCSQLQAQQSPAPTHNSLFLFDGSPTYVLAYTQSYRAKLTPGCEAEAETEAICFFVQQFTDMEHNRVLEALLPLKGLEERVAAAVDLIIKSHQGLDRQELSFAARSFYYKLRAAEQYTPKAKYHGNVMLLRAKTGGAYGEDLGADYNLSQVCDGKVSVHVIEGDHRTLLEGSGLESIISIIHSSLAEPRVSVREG

Compound	IC50
CCC(=O)N[C@H]1CC[C@@H](N(C)C(=O)c2cnc(-c3cc(F)c4[nH]ccc4c3)c(F)c2)C1 [Compound A142, 5-fluoro-6-(7-fluoro-1H-indol-5-yl)-N-methyl-N-((1R,3S)-3-propionylamino-cyclopentyl)-nicotinamide]	300 to 3000 nM
CCC(=O)N[C@H]1CC[C@@H](N(C)C(=O)c2ccc(-c3ccc(C#N)cc3)cc2)C1 [Compound A12, 4′-cyano-biphenyl-4-carboxylic acid methyl-((1R,3S)-3-propionylamino-cyclopentyl)-amide]	< 300 nM
CC(=O)N[C@@H]1CC[C@@H](N(C)C(=O)c2ccc(-c3nc4ccccc4o3)cc2)C1 [Compound A166, N-((1R,3R)-3-acetylamino-cyclopentyl)-4-benzooxazol-2-yl-N-methyl-benzamide]	3000 to 50000 nM
CCC(=O)N[C@H]1CC[C@@H](N(C)C(=O)c2ccc(-c3ccc4[nH]ccc4n3)cc2)C1 [Compound A129, N-methyl-N-((1R,3S)-3-propionylamino-cyclopentyl)-4-(1H-pyrrolo[3,2-b]pyridin-5-yl)-benzamide]	< 300 nM
CCC(=O)N[C@H]1CC[C@@H](N(C)C(=O)c2ccc(-c3ccc4[nH]c(=O)[nH]c4c3)cc2)C1 [Compound A93, N-methyl-4-(2-oxo-2,3-dihydro-1H-benzimidazol-5-yl)-N-((1R,3S)-3-propionylamino-cyclopentyl)-benzamide]	< 300 nM
CCC(=O)N[C@H]1CC[C@@H](N(C)C(=O)c2ccc(-c3ccc4[nH]cc(C)c4c3)cc2)C1 [Compound A115, N-methyl-4-(3-methyl-1H-indol-5-yl)-N-((1R,3S)-3-propionylamino-cyclopentyl)-benzamide]	< 300 nM
CCC(=O)N[C@H]1CC[C@@H](N(C)C(=O)c2ccc(-c3ccc4c(ccn4C)c3)nn2)C1 [Compound A118, 6-(1-methyl-1H-indol-5-yl)-pyridazine-3-carboxylic acid methyl-((1R,3S)-3-propionylamino-cyclopentyl)-amide]	< 300 nM
CCC(=O)N[C@H]1CC[C@@H](N(C)C(=O)c2cnc(-c3ccc4[nH]ccc4c3F)c(F)c2)C1 [Compound A143, 5-fluoro-6-(4-fluoro-1H-indol-5-yl)-N-methyl-N-((1R,3S)-3-propionylamino-cyclopentyl)-nicotinamide]	< 300 nM
CCC(=O)N[C@H]1CC[C@@H](N(C)C(=O)c2ccc(-c3ccc(C4CCC(C)CC4)cc3F)cc2)C1 (stereo partly drawn) [Compound A54, 2′-fluoro-4′-(4-methyl-cyclohexyl)-biphenyl-4-carboxylic acid methyl-((1R,3S)-3-propionylamino-cyclopentyl)-amide]	300 to 3000 nM
CCC(=O)N[C@H]1CC[C@@H](N(C)C(=O)c2ccc(-c3nc4cc(Cl)ccc4o3)cc2)C1 [Compound A9, 4-(5-chloro-benzoxazol-2-yl)-N-methyl-N-((1R,3S)-3-propionylamino-cyclopentyl)-benzamide]	< 300 nM
C[C@H](O)C(=O)N[C@H]1CC[C@@H](N(C)C(=O)c2ccc(-c3nc4ccccc4o3)cc2)C1 [Compound A37, 4-benzoxazol-2-yl-N-[(1R,3S)-3-((S)-2-hydroxy-propionylamino)-cyclopentyl]-N-methyl-benzamide]	< 300 nM
CCC(=O)N[C@H]1CC[C@@H](N(C)C(=O)c2ccc(-c3ccc4[nH]ccc4c3)nn2)C1 [Compound A113, 6-(1H-indol-5-yl)-pyridazine-3-carboxylic acid methyl-((1R,3S)-3-propionylamino-cyclopentyl)-amide]	< 300 nM
CN(C(=O)c1cnc(-c2nc3ccc(Cl)cc3o2)cn1)[C@@H]1CC[C@H](NC(=O)[C@@H]2CCCO2)C1 [Compound A159, 5-(6-chloro-benzoxazol-2-yl)-pyrazine-2-carboxylic acid methyl-{(1R,3S)-3-[((S)-tetrahydro-furan-2-carbonyl)-amino]-cyclopentyl}-amide]	< 300 nM
CCC(=O)N[C@H]1CC[C@@H](N(C)C(=O)c2ccc(-c3ccc4[nH]cc(C#N)c4c3)cc2)C1 [Compound A99a, 4-(3-cyano-1H-indol-5-yl)-N-methyl-N-((1R,3S)-3-propionylamino-cyclopentyl)-benzamide]	< 300 nM
CCC(=O)N[C@H]1CC[C@@H](N(C)C(=O)c2ccc(-c3nc4ccc(Cl)cc4o3)nc2)C1 [Compound A153, 6-(6-chloro-benzoxazol-2-yl)-N-methyl-N-((1R,3S)-3-propionylamino-cyclopentyl)-nicotinamide]	< 300 nM
CCC(=O)N[C@H]1CC[C@@H](N(C)C(=O)c2ccc(-c3nc4cccc(F)c4o3)cc2)C1 [Compound A49, 4-(7-fluoro-benzoxazol-2-yl)-N-methyl-N-((1R,3S)-3-propionylamino-cyclopentyl)-benzamide]	< 300 nM
CCC(=O)N[C@H]1CC[C@@H](N(C)C(=O)c2ccc(-c3ccc(F)cc3)cc2)C1 [Compound A53, 4′-fluoro-biphenyl-4-carboxylic acid methyl-((1R,3S)-3-propionylamino-cyclopentyl)-amide]	< 300 nM

Compound	IC50
CCC(=O)N[C@H]1CC[C@@H](N(C)C(=O)c2ccc(-c3cc4cc[nH]c4cc3F)cc2)C1 [Compound A122, 4-(6-fluoro-1H-indol-5-yl)-N-methyl-N-((1R,3S)-3-propionylamino-cyclopentyl)-benzamide]	< 300 nM
CCC(=O)N[C@H]1CC[C@@H](N(C)C(=O)c2ccc(-c3nc4ccc(Cl)cc4o3)nn2)C1 [Compound A155, 6-(6-chloro-benzoxazol-2-yl)-pyridazine-3-carboxylic acid methyl-((1R,3S)-3-propionylamino-cyclopentyl)-amide]	3000 to 50000 nM
CCC(=O)N[C@H]1CC[C@@H](N(C)C(=O)c2ccc(-c3ccc4[nH]ccc4c3F)nc2)C1 [Compound A135, 6-(4-fluoro-1H-indol-5-yl)-N-methyl-N-((1R,3S)-3-propionylamino-cyclopentyl)-nicotinamide]	< 300 nM
CN(C(=O)c1ccc(-c2nc3ccccc3o2)cc1)[C@@H]1CC[C@H](NC(=O)c2ccccc2)C1 [Compound A20, 4-benzoxazol-2-yl-N-((1R,3S)-3-benzoylamino-cyclopentyl)-N-methyl-benzamide]	300 to 3000 nM
CC(=O)N[C@@H](C(=O)N[C@H]1CC[C@@H](N(C)C(=O)c2ccc(-c3nc4ccccc4o3)cc2)C1)C(C)C [Compound A42, N-[(1R,3S)-3-((R)-2-acetylamino-3-methyl-butyrylamino)-cyclopentyl]-4-benzoxazol-2-yl-N-methyl-benzamide]	3000 to 50000 nM
CCC(=O)N[C@H]1CC[C@@H](N(C)C(=O)c2ccc(-c3ccc(OC)cc3C)cc2)C1 [Compound A65, 4′-methoxy-2′-methyl-biphenyl-4-carboxylic acid methyl-((1R,3S)-3-propionylamino-cyclopentyl)-amide]	< 300 nM
CCC(=O)N[C@H]1CC[C@@H](N(C)C(=O)c2ccc(-c3ccc(OC(F)(F)F)c(F)c3)cc2)C1 [Compound A98, 3′-fluoro-4′-trifluoromethoxy-biphenyl-4-carboxylic acid methyl-((1R,3S)-3-propionylamino-cyclopentyl)-amide]	< 300 nM
CCC(=O)N[C@H]1CC[C@@H](N(C)C(=O)c2ccc(-c3ccc4[nH]ccc4c3)cc2C)C1 [Compound A120, 4-(1H-indol-5-yl)-2,N-dimethyl-N-((1R,3S)-3-propionylamino-cyclopentyl)-benzamide]	< 300 nM
CCC(=O)N[C@H]1CC[C@@H](N(C)C(=O)c2cnc(-c3ccc4[nH]ccc4c3F)cc2C)C1 [Compound A146, 6-(4-fluoro-1H-indol-5-yl)-4,N-dimethyl-N-((1R,3S)-3-propionylamino-cyclopentyl)-nicotinamide]	< 300 nM
CCC(=O)N[C@H]1CC[C@@H](N(C)C(=O)c2ccc(-c3ccc4cnn(C)c4c3)cc2)C1 [Compound A74, N-methyl-4-(1-methyl-1H-indazol-6-yl)-N-((1R,3S)-3-propionylamino-cyclopentyl)-benzamide]	< 300 nM
CCC(=O)N[C@H]1CC[C@@H](N(C)C(=O)c2ccc(-c3ccc4[nH]nnc4c3)cc2)C1 [Compound A91, 4-(1H-benzotriazol-5-yl)-N-methyl-N-((1R,3S)-3-propionylamino-cyclopentyl)-benzamide]	< 300 nM
CCC(=O)N[C@H]1CC[C@@H](N(C)C(=O)c2ccc(-c3ccc4[nH]ccc4c3)c(C)c2)C1 [Compound A101, 4-(1H-indol-5-yl)-3,N-dimethyl-N-((1R,3S)-3-propionylamino-cyclopentyl)-benzamide]	< 300 nM
CCC(=O)N[C@H]1CC[C@@H](N(C)C(=O)c2cnc(-c3ccc4[nH]ccc4c3)c(F)c2)C1 [Compound A140, 5-fluoro-6-(1H-indol-5-yl)-N-methyl-N-((1R,3S)-3-propionylamino-cyclopentyl)-nicotinamide]	< 300 nM
CN(C(=O)c1ccc(-c2nc3ccccc3o2)cc1)[C@@H]1CC[C@H](NC(=O)C2CC2)C1 [Compound A2, 4-benzoxazol-2-yl-N-[(1R,3S)-3-(cyclopropanecarbonyl-amino)-cyclopentyl]-N-methyl-benzamide]	< 300 nM
CN(C(=O)c1ccc(-c2nc3ccccc3o2)cc1)[C@@H]1CC[C@H](NC(=O)C[C@@H]2CCC(=O)N2)C1 [Compound A45, 4-benzoxazol-2-yl-N-methyl-N-{(1R,3S)-3-[2-((S)-5-oxo-pyrrolidin-2-yl)-acetylamino]-cyclopentyl}-benzamide]	3000 to 50000 nM
CCC(=O)N[C@H]1CC[C@@H](N(C)C(=O)c2ccc(-c3ccc(C(=O)OC)c(F)c3)cc2)C1 [Compound A69, 3-fluoro-4′-[methyl-((1R,3S)-3-propionylamino-cyclopentyl)-carbamoyl]-biphenyl-4-carboxylic acid methyl ester]	< 300 nM
CCC(=O)N[C@H]1CC[C@@H](N(C)C(=O)c2ccc(-c3ccccc3)cc2)C1 [Compound A8, biphenyl-4-carboxylic acid methyl-((1R,3S)-3-propionylamino-cyclopentyl)-amide]	< 300 nM
